ChEMBL document CHEMBL4680262, “Development of oxathiino[6,5-b]pyridine 2,2-dioxide derivatives as selective inhibitors of tumor-related carbonic anhydrases IX and XII” (Eur J Med Chem, 2020)

Columns and labels:
Carbonic anhydrase 9 = Carbonic anhydrase 9 (Homo sapiens, UniProt Q16790); assay: Inhibition of recombinant human carbonic anhydrase 9 incubated for 6 hrs prior to testing measured for 10 to 100 secs by phenol red-based stopped-flow CO2 hydration assay
Carbonic anhydrase 1 = Carbonic anhydrase 1 (Homo sapiens, UniProt P00915); assay: Inhibition of recombinant human carbonic anhydrase 1 incubated for 6 hrs prior to testing measured for 10 to 100 secs by phenol red-based stopped-flow CO2 hydration assay
Carbonic anhydrase 1, sequence (P00915 whole entry): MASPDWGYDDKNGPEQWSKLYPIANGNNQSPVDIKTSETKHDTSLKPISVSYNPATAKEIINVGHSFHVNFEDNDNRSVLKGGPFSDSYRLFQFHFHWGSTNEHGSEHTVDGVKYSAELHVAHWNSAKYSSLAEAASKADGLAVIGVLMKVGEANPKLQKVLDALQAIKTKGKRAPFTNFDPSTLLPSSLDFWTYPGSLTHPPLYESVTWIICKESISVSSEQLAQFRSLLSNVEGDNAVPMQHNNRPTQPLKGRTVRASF

Carbonic anhydrase 2 = Carbonic anhydrase 2 (Homo sapiens, UniProt P00918); assay: Inhibition of recombinant human carbonic anhydrase 2 incubated for 6 hrs prior to testing measured for 10 to 100 secs by phenol red-based stopped-flow CO2 hydration assay
HeLa = assay: Cytotoxicity against human HeLa cells assessed as reduction in cell viability incubated for 48 hrs by MTT assay; format: functional, cell-based
A549 = assay: Cytotoxicity against human A549 cells assessed as reduction in cell viability incubated for 48 hrs by MTT assay; format: functional, cell-based; conditions: A549, 48 h
MCF7 = assay: Cytotoxicity against human MCF7 cells assessed as reduction in cell viability incubated for 48 hrs by MTT assay; format: functional, cell-based; conditions: MCF7, 48 h

With `O=S1(=O)C=Cc2cc(-c3ccccc3)cnc2O1` the Ki (Carbonic anhydrase 9) was 0.134 µM, the Ki (Carbonic anhydrase 1) was > 100 µM and the Ki (Carbonic anhydrase 2) was > 100 µM.

`O=S1(=O)C=Cc2cc(-c3ccc(C(F)(F)F)cc3)cnc2O1` showed an IC50 (HeLa) of 42 µM, an IC50 (A549) of 77 µM and a Ki (Carbonic anhydrase 9) of 0.0701 µM. For the same compound, the IC50 (MCF7) was 75 µM.

`O=S1(=O)C=Cc2cc(-c3cccc4ccccc34)cnc2O1` showed a Ki (Carbonic anhydrase 9) of 0.221 µM.

`O=S1(=O)C=Cc2cc(-c3cc(Cl)cc(Cl)c3)cnc2O1` gave an IC50 (HeLa) of 4.8 µM, an IC50 (A549) of 14 µM and a Ki (Carbonic anhydrase 9) of 0.0569 µM. For the same compound, the Ki (Carbonic anhydrase 1) was > 100 µM, the Ki (Carbonic anhydrase 2) was > 100 µM and the IC50 (MCF7) was 20 µM.

In the case of `COc1cccc(-c2cnc3c(c2)C=CS(=O)(=O)O3)c1`, the Ki (Carbonic anhydrase 9) is reported as 0.137 µM, the Ki (Carbonic anhydrase 1) is reported as > 100 µM and the Ki (Carbonic anhydrase 2) is reported as > 100 µM.

For `O=S1(=O)C=Cc2cc(-c3ccc(OC(F)(F)F)cc3)cnc2O1`, the Ki (Carbonic anhydrase 9) was 0.2 µM, the Ki (Carbonic anhydrase 1) was > 100 µM and the Ki (Carbonic anhydrase 2) was > 100 µM.

For `COc1ccc(-c2cnc3c(c2)C=CS(=O)(=O)O3)cc1`, the Ki (Carbonic anhydrase 9) was 0.0868 µM, the Ki (Carbonic anhydrase 1) was > 100 µM and the Ki (Carbonic anhydrase 2) was > 100 µM.

`O=S1(=O)C=Cc2cccnc2O1` was tested, and the Ki (Carbonic anhydrase 9) was 0.169 µM, the Ki (Carbonic anhydrase 1) was 64.1 µM and the Ki (Carbonic anhydrase 2) was 14 µM.

In the case of `O=S1(=O)C=Cc2cc(-c3ccc(Cl)cc3)cnc2O1`, the Ki (Carbonic anhydrase 9) is reported as 0.0863 µM, the Ki (Carbonic anhydrase 1) is reported as > 100 µM and the Ki (Carbonic anhydrase 2) is reported as > 100 µM.

In the case of `O=S1(=O)C=Cc2cc(-c3ccc(-c4ccccc4)cc3)cnc2O1`, the Ki (Carbonic anhydrase 9) is reported as 0.21 µM, the Ki (Carbonic anhydrase 1) is reported as > 100 µM and the Ki (Carbonic anhydrase 2) is reported as > 100 µM.

`CC(C)(C)c1ccc(-c2cnc3c(c2)C=CS(=O)(=O)O3)cc1` showed an IC50 (HeLa) of 171 µM, an IC50 (A549) of 149 µM and a Ki (Carbonic anhydrase 9) of 0.0314 µM. The IC50 (MCF7) was > 500 µM.
